From patent publication EP0308983A2, “NMR imaging with Mn(II) coordination compositions” (priority 1987, dated 1989)
Values joined by “and” are separate entries in the source; they are usually repeats but may differ in a detail not shown here. Identical values can stand only once.

Columns and labels:
[1] = Paramagnetic relaxation properties in human plasma at 37°C; format: physicochemical
Rats = conditions: IV, standard conditions, 10 animals per dosage group
From the text: The doses were 0.3, 0.5, and 0.8 mmole/kg. 10 Animals were used in each dosage group.

New Zealand white rabbit = test system: New Zealand white rabbit
Experimental: This solution was infused into a New Zealand white rabbit (3.1 kg wt.) at 0.065 mmole/kg/min for 5 min to achieve a total dose of […]. […] 15 Min after the infusion, the rabbit was sacrificed by lethal pentobarbitol injection, and the heart and liver were removed. Samples of these organs were tested for relaxation time at 0.15 T with a RADX spectrometer (Houston, TX).
At a lower dose level (0.10 mmole/kg), the effects of a rapid bolus injection (10 sec) or a slow infusion (over 5 min) were tested in two New Zealand white rabbits. 15 Min after the end of the infusion or injection, the animals were sacrificed and T₁ and T₂ values were measured on 4-16 individual samples of kidney, liver and heart tissue.

[2] = test system: New Zealand white rabbits; conditions: rabbit, 1.5 T
Experimental: A General Electric Signa Magnetic Resonance Imaging System, operating at 1.5 T, and using a knee surface coil was used. New Zealand white rabbits (ca. 2.5 kg wt.) were used for imaging. […] With these instrument settings, an image could be acquired in about 1.3 min. Images of the rabbit kidney and liver were taken before injection and at 1, 3, 6, 8, 12, 16, 21, 26, 36, 46, and 56 min intervals after injection.
Schematic drawings of the images before injection and at intervals of 10 and 60 minutes are show in Fig. 1, 2 and 3, respectively.

[3] = Stability of aqueous solutions after addition of a NaOH solution; conditions: ratio of OH⁻ to compound of 0.2; 161 mM (glycine) or 167 mM (gluconate) aqueous solution
Experimental: NMR contrast agents must be stable in solution under adverse conditions to be effective as pharmaceutical agents.
One ml of a 161 mM solution (initial pH 5) was placed in a test tube at 19°C. Sodium hydroxide (0.032 ml; 1 N) was added to the solution, giving a ratio of OH⁻ to compound of 0.2.
[Manganese(II)·(H₂O)₂·(gluconate)₂]⁺²(Cl₂)⁻² was prepared according to the procedure of Example 24. Deionized water was added to form a 167 mM clear solution. One mole equivalent of sodium hydroxide solution was added to five mole equivalents of the [manganese(II)·(H₂O)₂·(gluconate)₂]⁺²(Cl₂)⁻² solution, giving a ratio of OH⁻ to compound of 0.20.

[4] = Plasma clearance: plasma T₁ and T₂ times after injection; format: in vivo; conditions: rabbit, 0.1 mmole/kg; for plasma T₁ / plasma T₂: 0.15 T
Experimental: A dose of 0.1 mmole/kg of GdDTPA was injected into a rabbit and blood samples were drawn at 10 min intervals for 50 min. The blood was centrifuged, and the plasma T₁ and T₂ times were measured at 0.15 T with a RADX PROTON SPIN ANALYZER (Houston, TX).

[5] = Paramagnetic relaxation properties in water at 10 MHz (0.15T), RADX spin analyzer; format: physicochemical; conditions: 10 MHz (0.15T)
In short: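 Mn(II) complexes in water were measured after thermal equilibrium at 37°C. T₁ (spin-lattice) and T₂ (spin-spin) relaxation values were recorded, in triplicate where stated.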

[6] = 37°C, repeat measurement 80 minutes later
[7] = 0.10 mmole/kg, bolus (10 sec), 15 min after, mean of samples
[8] = 0.10 mmole/kg, slow infusion (over 5 min), 15 min after, mean of samples
[9] = infusion 0.065 mmole/kg/min for 5 min, total dose 0.31 mole/kg, 15 min after infusion, 0.15 T
[10] = 0.99 mM solution in water, 37°C, triplicate, mean +/- SD

## NCC(=O)O.NCC(=O)O.O.O.[Cl-].[Cl-].[Mn+2] [[Manganese(II)·(H₂O)₂·(glycine)₂]⁺²(Cl₂)⁻²]
[1]; 94 µM final concentration, 37°C
  T₂ value: 184 ± 12 ms
[1]; 94 µM final concentration, 37°C, triplicate
  T₁ value: 227 ± 3 ms
[1]; 37°C
  R₁: 46.9 mM⁻¹ s⁻¹
  R₂: 57.8 mM⁻¹ s⁻¹
[1]; [6]
  T₁ changed by (repeat measurement): 2%
  T₂ changed by (repeat measurement): 2%
[1]; versus GdDTPA
  T₂ relaxivity in plasma, fold greater than GdDTPA: 12.0 fold
[1]; versus gadolinium diethylenetriaminepentaacetic acid chelate (GdDTPA)
  T₁ relaxivity in plasma, fold greater than GdDTPA: 9.8 fold
Rats
  LD₅₀: 0.70 mmol/kg
New Zealand white rabbit; [7]
  Heart T₁, Bolus Injection, Mean: 156 ms
  Heart T₂, Bolus Injection, Mean: 40 ms
  Kidney T₁, Bolus Injection, Mean: 109 ms
  Kidney T₂, Bolus Injection, Mean: 40 ms
  Liver T₁, Bolus Injection, Mean: 51 ms
  Liver T₂, Bolus Injection, Mean: 18 ms
New Zealand white rabbit; 0.10 mmole/kg, slow infusion (over 5 min), 15 min after, individual tissue samples
  Liver T₂, Infusion: 15 msec (2×) and 11 msec and 20 msec
New Zealand white rabbit; [8]
  Heart T₁, Infusion, Mean: 179 ms
  Heart T₂, Infusion, Mean: 41 ms
  Kidney T₁, Infusion, Mean: 120 ms
  Kidney T₂, Infusion, Mean: 45 ms
  Liver T₁, Infusion, Mean: 39 ms
  Liver T₂, Infusion, Mean: 15 ms
New Zealand white rabbit; infusion 0.065 mmole/kg/min for 5 min, total dose 0.31 mole/kg
  tolerance of the infusion: tolerated the infusion without outward signs of a pharmacologic or toxicologic effect
New Zealand white rabbit; [9]
  heart T₁: 45 ms
  heart T₂: 21 ms
  liver T₁: 19 ms
  liver T₂: 10 ms
[2]; image after one hour (60 min)
  liver parenchyma image intensity: returned to normal intensity
[2]; one min after injection, doses of 10 and 20 µmole/kg, Spin Echo TR = 300 msec, TE = 20 msec
  enhancement of the liver and parenchyma in the image: over 100%
[3]
  stability after addition of a NaOH solution: the solution remained clear with no discoloration or formation of a precipitate
[4]
  time for which the plasma T₁ was maintained below 250: 40 min
[4]; 0 min (baseline)
  plasma T₁: 1600 ms
  plasma T₂: 447 ms
[4]; 10 min
  plasma T₁: 58 ms
  plasma T₂: 42 ms
[4]; 20 min
  plasma T₁: 102 ms
  plasma T₂: 65 ms
[4]; 30 min
  plasma T₁: 156 ms
  plasma T₂: 110 ms
[4]; 40 min
  plasma T₁: 224 ms
  plasma T₂: 156 ms
[4]; 50 min
  plasma T₁: 259 ms
  plasma T₂: 180 ms
[4]; 60 min
  plasma T₁: 323 ms
  plasma T₂: 205 ms
[4]; 70 min
  plasma T₁: 453 ms
  plasma T₂: 257 ms
[4]; 80 min
  plasma T₁: 550 ms
  plasma T₂: 293 ms
[4]; 90 min
  plasma T₁: 625 ms
  plasma T₂: 295 ms
[5]; [10]
  spin-lattice (T₁) relaxation value: 109 ± 5 ms
  spin-spin (T₂) relaxation value: 26 ± 1 ms
[5]; in water, calculated from T₁ and concentration
  millimolar relaxivity for T₁: 9.27 mM⁻¹ s⁻¹
[5]; in water, calculated from T₂ and concentration
  millimolar relaxivity for T₂: 38.9 mM⁻¹ s⁻¹
